This assay deals with PC3 cells. In words: NAMPT Cell Proliferation Assay. Type of assay: cell-based. The settings on record: Homo sapiens, PC-3, 120 h, 5 days incubation, cell viability by Cell Titer Glo. The method, boiled down: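 Five-day CellTiter-Glo viability readout in PC3 cells grown in RPMI/10% heat-inactivated FBS. Compounds added after overnight attachment as a 10-fold dilution series, […]. Percent inhibition fitted to sigmoidal dose-response to derive IC50.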
Usually IC50 stands for the concentration that inhibits the measured activity by half. The low end stands for greater potency, the high end for weaker potency. The compound `CC(C)CC(=O)N1CCC(Oc2ccc(NC(=O)C3CN(c4cccnc4)C3)cc2)CC1` [Example 45, N-(4-{[1-(3-methylbutanoyl)piperidin-4-yl]oxy}phenyl)-1-(pyridin-3-yl)azetidine-3-carboxamide] had an IC50 of 6.77 nM. This counts as single-digit nanomolar.

The compound `O=C(Nc1ccc(C2CCN(C(=O)C(c3ccccc3)c3ccccc3)CC2)cc1)C1CN(c2cccnn2)C1` [Example 386, N-{4-[1-(diphenylacetyl)piperidin-4-yl]phenyl}-1-(pyridazin-3-yl)azetidine-3-carboxamide] had an IC50 of 3.18 nM.

For `CC(C)CC(=O)N1CCC(c2ccc(NC(=O)C3CN(c4cccnc4)C3)cc2)CC1` [Example 137, N-{4-[1-(3-methylbutanoyl)piperidin-4-yl]phenyl}-1-(pyridin-3-yl)azetidine-3-carboxamide], the IC50 is 0.31 nM.

Compound `Cc1ccc(C(=O)N2CCC(c3ccc(NC(=O)[C@H]4CCN(c5cccnn5)C4)cc3)CC2)c(C)c1` [Example 672, (3S)-N-{4-[1-(2,4-dimethylbenzoyl)piperidin-4-yl]phenyl}-1-(pyridazin-3-yl)pyrrolidine-3-carboxamide] came in with an IC50 of 4.05 nM. Compared with the last compound, the IC50 is about 13-fold higher.

`CC(C)(C(=O)N1CCC(Oc2ccc(NC(=O)C3CN(c4ccnnc4)C3)cc2)CC1)c1ccccc1` [Example 281, N-(4-{[1-(2-methyl-2-phenylpropanoyl)piperidin-4-yl]oxy}phenyl)-1-(pyridazin-4-yl)azetidine-3-carboxamide] had an IC50 of 16.9 nM.

On to `O=C(Nc1ccc(OC2CCN(C(=O)CC3CC3)CC2)cc1)C1CN(c2ccnnc2)C1` [Example 293, N-(4-{[1-(cyclopropylacetyl)piperidin-4-yl]oxy}phenyl)-1-(pyridazin-4-yl)azetidine-3-carboxamide], for which inhibition was half-maximal at 72.3 nM (IC50).

As to `O=C(Nc1ccc(C2CCN(C(=O)Cc3c(Cl)cccc3Cl)CC2)cc1)C1CN(c2cccnn2)C1` [Example 423, N-(4-{1-[(2,6-dichlorophenyl)acetyl]piperidin-4-yl}phenyl)-1-(pyridazin-3-yl)azetidine-3-carboxamide], the IC50 stood at 0.38 nM.

In turn, `CC(C)(N)C(=O)N1CCC(c2ccc(NC(=O)C3CN(c4cccnc4)C3)cc2)CC1` [Example 602, N-{4-[1-(2-methylalanyl)piperidin-4-yl]phenyl}-1-(pyridin-3-yl)azetidine-3-carboxamide] registered an IC50 of 2 nM.

For the compound `COCCOCC(=O)N1CCC(c2ccc(NC(=O)[C@H]3CCN(c4cccnn4)C3)cc2)CC1` [Example 722, (3S)-N-(4-{1-[(2-methoxyethoxy)acetyl]piperidin-4-yl}phenyl)-1-(pyridazin-3-yl)pyrrolidine-3-carboxamide], the midpoint of inhibition, the IC50, lay at 84.8 nM.

With `CC(C)c1ccc(C(=O)N2CCC(c3ccc(NC(=O)[C@H]4CCN(c5cccnn5)C4)cc3)CC2)cc1` [Example 729, (3S)-N-(4-{1-[4-(propan-2-yl)benzoyl]piperidin-4-yl}phenyl)-1-(pyridazin-3-yl)pyrrolidine-3-carboxamide], the IC50 was determined as 13.5 nM. Compared with the last compound, the IC50 is about 6.3-fold lower.

As to `O=C(Nc1ccc(C2CCN(C(=O)c3ccc(F)cc3)CC2)cc1)C1CN(c2cccnn2)C1` [Example 349, N-{4-[1-(4-fluorobenzoyl)piperidin-4-yl]phenyl}-1-(pyridazin-3-yl)azetidine-3-carboxamide], the IC50 came to 7.28 nM.

The compound `O=C(Nc1ccc(OC2CCN(C(=O)c3cscn3)CC2)cc1)C1CN(c2ccnnc2)C1` [Example 272, 1-(pyridazin-4-yl)-N-(4-{[1-(1,3-thiazol-4-ylcarbonyl)piperidin-4-yl]oxy}phenyl)azetidine-3-carboxamide] came in with an IC50 of 79.5 nM.

`Cc1ncccc1N1CC[C@H](C(=O)Nc2ccc(C3CCN(C(=O)c4ccccc4F)CC3)cc2)C1` [Example 744, (3S)—N-{4-[1-(2-fluorobenzoyl)piperidin-4-yl]phenyl}-1-(2-methylpyridin-3-yl)pyrrolidine-3-carboxamide] registered an IC50 of 2720 nM.

In turn, `COCCOCC(=O)N1CCC(c2ccc(NC(=O)C3CN(c4cccnc4C)C3)cc2)CC1` [Example 183, N-(4-{1-[(2-methoxyethoxy)acetyl]piperidin-4-yl}phenyl)-1-(2-methylpyridin-3-yl)azetidine-3-carboxamide] yielded an IC50 of 346 nM.

In turn, `O=C(Nc1ccc(OC2CCN(C(=O)c3ccc(Cl)cc3)CC2)cc1)C1CN(c2ccnnc2)C1` [Example 297, N-(4-{[1-(4-chlorobenzoyl)piperidin-4-yl]oxy}phenyl)-1-(pyridazin-4-yl)azetidine-3-carboxamide] showed an IC50 of 93.2 nM. This IC50 is about 3.7-fold lower than that of the compound before.

As to `CCOCCC(=O)N1CCC(c2ccc(NC(=O)C3CN(c4cccnc4)C3)cc2)CC1` [Example 115, N-{4-[1-(3-ethoxypropanoyl)piperidin-4-yl]phenyl}-1-(pyridin-3-yl)azetidine-3-carboxamide], the IC50 was found to be 0.4 nM.

`O=C(Nc1ccc(C2CCN(C(=O)c3ccc(Cl)cc3)CC2)cc1)C1CN(c2cccnn2)C1` [Example 401, N-{4-[1-(4-chlorobenzoyl)piperidin-4-yl]phenyl}-1-(pyridazin-3-yl)azetidine-3-carboxamide] came in with an IC50 of 8.54 nM.

Compound `O=C(Nc1ccc(O[C@@H]2CCN(C(=O)C(F)(F)c3ccccc3)C2)cc1)C1CN(c2ccnnc2)C1` [Example 480, N-[4-({(3R)-1-[difluoro(phenyl)acetyl]pyrrolidin-3-yl}oxy)phenyl]-1-(pyridazin-4-yl)azetidine-3-carboxamide] showed an IC50 of 4.24 nM.

Compound `O=C(Nc1ccc(C2CCN(C(=O)c3cscn3)CC2)cc1)C1CN(c2ccnnc2)C1` [Example 537, 1-(pyridazin-4-yl)-N-{4-[1-(1,3-thiazol-4-ylcarbonyl)piperidin-4-yl]phenyl}azetidine-3-carboxamide] gave an IC50 of 3.3 nM.

The compound `CC(C)(C)CC(=O)N1CCC(c2ccc(NC(=O)C3CN(c4cccnn4)C3)c(F)c2)CC1` [Example 835, N-{4-[1-(3,3-dimethylbutanoyl)piperidin-4-yl]-2-fluorophenyl}-1-(pyridazin-3-yl)azetidine-3-carboxamide] came in with an IC50 of 2.35 nM. This IC50 and that of the compound before are within 1.5-fold of each other.

For the compound `O=C(Nc1ccc(O[C@@H]2CCN(C(=O)c3ccc(F)cc3)C2)cc1)[C@H]1CCN(c2cccnn2)C1` [Example 777, (3S)-N-(4-{[(3R)-1-(4-fluorobenzoyl)pyrrolidin-3-yl]oxy}phenyl)-1-(pyridazin-3-yl)pyrrolidine-3-carboxamide], the IC50 was 19.2 nM. This IC50 lies about 8.2-fold higher than the previous one.

In turn, `O=C(Nc1ccc(OC2CCN(C(=O)C3CCC(F)(F)CC3)CC2)cc1)C1CN(c2cccnn2)C1` [Example 216, N-[4-({1-[(4,4-difluorocyclohexyl)carbonyl]piperidin-4-yl}oxy)phenyl]-1-(pyridazin-3-yl)azetidine-3-carboxamide] displayed an IC50 of 5.99 nM. This IC50 lies about 3.2-fold lower than the previous one.

As for `Cc1ncccc1N1CC(C(=O)Nc2ccc(C3CCN(C(=O)CC4C[C@@H]5CC[C@H]4C5)CC3)cc2)C1` (stereo partly drawn) [Example 161, N-(4-{1-[(1S,4R)-bicyclo[2.2.1]hept-2-ylacetyl]piperidin-4-yl}phenyl)-1-(2-methylpyridin-3-yl)azetidine-3-carboxamide], the IC50 came to 213 nM.

Compound `O=C(Nc1ccc(C2CCN(C(=O)c3cc(Cl)cc(Cl)c3)CC2)cc1)C1CN(c2cccnn2)C1` [Example 365, N-{4-[1-(3,5-dichlorobenzoyl)piperidin-4-yl]phenyl}-1-(pyridazin-3-yl)azetidine-3-carboxamide] registered an IC50 of 7.84 nM.

Values taken from patent US20130303509A1, “NAMPT INHIBITORS” (AbbVie Inc., priority 2012, published 2013).
